From PMC7838189, “Natural podophyllotoxin analog 4DPG attenuates EMT and colorectal cancer progression via activation of checkpoint kinase 2” (Cell Death Discovery, 2021)

What was measured:
Type in all cases: cell-based
[1] = system: SW-620/5-FU-R cells; experiment: Immunocytochemistry of Vimentin; settings: 48 h
Source text: (§1) 4DPG, a podophyllotoxin class of natural product anticancer compound (Supplementary Fig. S2A) has been recently described by our research group for its potent antitumor and anti-metastatic properties against aggressive cancers[31],[32]. Further, 4DPG augments phosphorylation and activation of Chk2 (Thr68) leading to suppression of EMT and invasiveness of p53-defective cancer cells. To investigate the effect of 4DPG on phosphorylation and expression levels of Chk2 in HCT-116/5-FU-R, SW-620/5-FU-R, and HT-29/5-FU-R cells, we treated these cells for 48 h with increasing concentrations of the compound, and whole-cell lysates were subjected to western blotting analysis. […] To determine the effect of 4DPG on the invasion abilities of these 5-FU-R cells, we performed in situ fluorescent gelatin degradation assay following our pre-standardized protocol[31],[37]. In physiological conditions, this assay mimics the extracellular matrix degradation by aggressive tumor cells undergoing invasion–metastasis process.
To examine whether 4DPG-mediated repression of Vimentin and invasiveness is a Chk2-dependent process, we performed genetic silencing of endogenous Chk2 in the 5-FU-R cells using target-specific SiRNAs.
Fig. 3 Chk2-dependent role of 4DPG in modulating p53 and repressing Vimentin expression in 5-FU-R cells. A Immunocytochemistry results showing the Vimentin expression level in SW-620/5-FU-R cells treated/transfected with scramble, SiChk2, scramble plus 4DPG, SiChk2 plus 4DPG, vehicle, PV1019, 4DPG, and PV1019 plus 4DPG for 48 h. Scale bars: 50 µm. […] C Matrigel invasion assay results showing invaded HCT-116/5-FU-R and SW-620/5-FU-R cells following 48 h of transient transfection with GFP and GFP-Chk2 plasmid construct. Scale bars: 50 µm. D Quantification of the number of invaded cells per field from the above experimental conditions. n = 3, error bars, mean ± SD; *P < 0.05, ***P < 0.001. E Immunocytochemistry results displaying Vimentin expression levels in HCT-116/5-FU-R and SW-620/5-FU-R cells after 48 h of transient transfection with pCDNA3 and/or HA-Chk2 plasmid construct. Scale bars: 50 µm. F Immunoprecipitation with Vimentin or p53 followed by western blotting analysis of p53 in SW-620/5-FU-R cells treated with vehicle and/or 4DPG (300 nM) for 48 h. G Cytosolic (left panel) and nuclear (right panel) extracts of SW-620/5-FU-R cells treated with vehicle and/or 4DPG (300 nM) for 48 h showing protein expression of Vimentin and p53. Tubulin and lamin expression was considered as endogenous loading controls for cytosolic and nuclear fractions, respectively.
We followed the standard protocol with some modifications for immunocytochemistry[56],[58]. In brief, cells, at a density of 4 × 10^5 cells/well, were seeded over the sterile coverslips placed in six-well plates. Following the respective treatment, cells were washed thrice with PBS. Next, the cells were fixed with 4% paraformaldehyde (pH = 7.4) for 15 min, permeabilized with 0.3% Triton X-100 for 10 min, and then blocked with 1% goat serum for 30 min. Consequently, the cells were incubated with anti-Vimentin antibody overnight at 4 °C, at a dilution of 1:100, followed by washing with PBST and further incubation with secondary anti-rabbit Alexa Fluor 488 (1:750 dilution). After subsequent washing and mounting, the images were captured at ×20 magnification under Floid Cell Imaging Station (Invitrogen).

[2] = system: HT-29/5-FU-R cells; experiment: Western blotting of Chk2 after 4DPG; settings: 48 h, vs vehicle
Source text: as §1
We adhered to the previously published protocol for western blotting. To sum up, cells were exposed to the respective treatments (mentioned in figure legends). Post-treatment, cells were lysed with cell lysis buffer, and cell lysates were collected after centrifugation. Bradford assay was performed to quantify the protein concentration. […]

[3] = system: SW-620/5-FU-R cells; experiment: Western blotting of Chk2 and EMT markers after 4DPG; settings: 48 h
Source text: as §1
(§2) Fig. 2 4DPG activates Chk2 and attenuates EMT in 5-FU-R CRC cells. A Western blotting analysis results portraying protein expression of p-Chk2 (Thr68) and Chk2 in HCT-116/5-FU-R and SW-620/5-FU-R cells in response to increasing concentrations of 4DPG, treated for 48 h. β-Actin expression was considered as endogenous loading control. B Densitometry analysis showing relative protein expression of western blot bands presented above. n = 3, error bars: mean ± SD; ***P < 0.001. C Western blots depicting protein expression of EMT markers in HCT-116/5-FU-R and SW-620/5-FU-R cells in response to increasing concentrations of 4DPG, treated for 48 h. β-Actin expression was considered as endogenous loading control. […] E Immunocytochemistry results displaying the protein expression levels of Vimentin in HCT-116/5-FU-R and SW-620/5-FU-R cells, treated with vehicle and/or 4DPG (300 nM) for 48 h. Scale bars: 50 µm. F In situ fluorescent gelatin degradation assay results showing the invadopodia/footprints of invaded SW-620/5-FU-R cells treated with vehicle and/or 4DPG at the indicated concentration for 48 h. Blue stains over the green background display DAPI staining of nuclei of cells. G Quantification of the area of degradation through Image J software. n = 3, error bars, mean ± SD; ***P < 0.001.
(§3) We adhered to the previously published protocol for western blotting. To sum up, cells were exposed to the respective treatments (mentioned in figure legends). Post-treatment, cells were lysed with cell lysis buffer, and cell lysates were collected after centrifugation. Bradford assay was performed to quantify the protein concentration. Equal amount of protein was taken from each sample to carry out the western blot analysis. SDS-PAGE was employed to separate the proteins that were later transferred onto PVDF membranes (Millipore, Billerica, MA). Next, the membranes were blocked with 5% skim milk and subsequently incubated with the specific primary antibodies (1:1000 dilution), either for 3 h at room temperature or overnight at 4 °C. Later, the blots were washed thoroughly with TBST and probed with the respective secondary antibodies (1:2000 dilution) coupled with horseradish peroxidase for 1 h. Following thorough washing, the membranes were visualized using enhanced chemiluminescence reagent (Millipore) and captured onto Biomax light film (The Eastman Kodak Co., Rochester, NY).

[4] = system: HCT-116/5-FU-R cells; experiment: as above; settings: 48 h
Source text: as §1, §2, §3

[5] = increasing concentrations, immunoblot

COc1cc([C@@H]2c3cc4c(cc3C[C@H]3COC(=O)[C@@H]32)OCO4)cc(OC)c1O[C@@H]1O[C@H](CO)[C@@H](O)[C@H](O)[C@H]1O [4DPG, 4′-demethyl-deoxypodophyllotoxin glucoside]
Vimentin expression level (immunocytochemistry) ([1]; 300 nM): considerable decrease
inhibition of Vimentin level by 4DPG ([1]; PV1019 plus 4DPG): negligible inhibition
inhibition of Vimentin level by 4DPG ([1]; SiChk2 plus 4DPG (Chk2-silenced)): mild inhibition
Vimentin level (immunocytochemistry) ([1]; scramble plus 4DPG): substantial reduction
increase in p-Chk2 (Thr68) level ([2]; 300 nM (sub-toxic)): 7.9 fold
expression of Chk2 (total) [2]: did not alter significantly
increase in p-Chk2 (Thr68) level ([3]; 300 nM (sub-toxic), vs vehicle): 11.2 fold
expression of Chk2 (total) ([3]; vs vehicle): did not alter significantly
amplification of E-cadherin ([3]; increasing concentrations): ≤ 10.2 fold
amplification of TIMP-1 ([3]; increasing concentrations): ≤ 7.2 fold
p-Vimentin (ser38), Vimentin, Twist1 and MMP-2 expression [3, 5]: remarkable downregulation
increase in p-Chk2 (Thr68) level ([4]; 300 nM (sub-toxic), vs vehicle): 12 fold
expression of Chk2 (total) ([4]; vs vehicle): did not alter significantly
amplification of E-cadherin ([4]; increasing concentrations): ≤ 12.8 fold
amplification of TIMP-1 ([4]; increasing concentrations): up to 12.5 fold
p-Vimentin (ser38), Vimentin, Twist1 and MMP-2 expression [4, 5]: remarkable downregulation
